The source of these data is EP4650361A1, “ARGININE OPTICAL PROBE” (East China University of Science and Technology, priority 2023, dated 2024).

The test system of assay [1] is Salmonella Typhimurium arginine-binding protein STM4351 variant G89A with cpYFP inserted at the 200/203 site (STM4351-200/203-G89A-cpYFP), SEQ ID NO: 7. As to the kind of experiment: Fluorescence response and titration of purified probe with arginine. Here is the method:
(§1) • 1. Transform the pET28a-based arginine probe plasmid into BL21(DE3), culture overnight in an inverted manner, pick a clone from the plate into a 250 ml conical flask, place in a 37 °C shaker, culture at 220 rpm until OD = 0.4-0.8, add IPTG (1 M) at 1/1000 (v/v), and induce expression at 18 °C for 24-36 h. • 2. After induction expression, collect the bacteria by centrifugation at 4000 rpm for 30 minutes, add 50 mM phosphate buffer to resuspend the bacterial pellet, and ultrasonically disrupt until the bacteria are clarified. Centrifuge at 9600 rpm at 4 °C for 20 minutes. • 3. […] Take 100 µl of 5 µM protein solution, incubate at 37 °C for 5 min, add arginine respectively and mix to a final concentration of 100 mM, and measure the light absorption of the protein at 340 nm using a multifunctional fluorescence microplate reader. • 6. Take 100 µl of 1 µM fluorescent probe solution, incubate at 37 °C for 5 min, add arginine for titration, and measure the fluorescence intensity of the protein at 528 nm emission after 485 nm fluorescence excitation. The measurement of fluorescence excitation and emission of samples is completed using a multifunctional fluorescence microplate reader. • 7. Take 100 µl of 1 µM fluorescent probe solution, incubate at 37 °C for 5 min, add arginine, and measure the absorption spectrum and fluorescence spectrum of the probe protein. […]

Assay [2] has as its system Salmonella Typhimurium arginine-binding protein STM4351 variant T32A with cpYFP inserted at the 200/203 site (STM4351-200/203-T32A-cpYFP), SEQ ID NO: 4. Kind of assay: Fluorescence response of purified probe to arginine. As to conditions: signal with 100 mM arginine divided by signal without arginine, Figure 2. On the procedure: as §1, with “3. The centrifuged supernatant is purified by a self-assembled nickel column affinity chromatography column to obtain the protein, and the protein after nickel column affinity chromatography is then passed through a self-assembled desalting column to obtain the protein dissolved in 20 mM MOPS buffer (pH 7.4) or phosphate buffer PBS. • 4. The purified arginine-binding protein mutant protein is identified by SDS-PAGE, and the probe is diluted with assay buffer (100 mM HEPES, 100 mM NaCl, pH 7.3) or phosphate buffer PBS to a final concentration of 5-10 µM protein solution.” for “3.”, “protein. The measurement of absorption spectrum and fluorescence spectrum of samples is completed by a spectrophotometer and a fluorescence spectrophotometer.” for “protein.”

In assay [3] the test system is Salmonella Typhimurium arginine-binding protein STM4351 variant H140A with cpYFP inserted at the 200/203 site (STM4351-200/203-H140A-cpYFP), SEQ ID NO: 14. Described as above. As to conditions: signal with 100 mM arginine divided by signal without arginine, Figure 2. On the procedure: as §1, with “3. The centrifuged supernatant is purified by a self-assembled nickel column affinity chromatography column to obtain the protein, and the protein after nickel column affinity chromatography is then passed through a self-assembled desalting column to obtain the protein dissolved in 20 mM MOPS buffer (pH 7.4) or phosphate buffer PBS. • 4. The purified arginine-binding protein mutant protein is identified by SDS-PAGE, and the probe is diluted with assay buffer (100 mM HEPES, 100 mM NaCl, pH 7.3) or phosphate buffer PBS to a final concentration of 5-10 µM protein solution.” for “3.”, “protein. The measurement of absorption spectrum and fluorescence spectrum of samples is completed by a spectrophotometer and a fluorescence spectrophotometer.” for “protein.”

Assay [4] relates to Salmonella Typhimurium arginine-binding protein STM4351 variant D91A with cpYFP inserted at the 200/203 site (STM4351-200/203-D91A-cpYFP), SEQ ID NO: 9. Described as above. As to conditions: signal with 100 mM arginine divided by signal without arginine, Figure 2. Here is the method:
as §1, with “3. The centrifuged supernatant is purified by a self-assembled nickel column affinity chromatography column to obtain the protein, and the protein after nickel column affinity chromatography is then passed through a self-assembled desalting column to obtain the protein dissolved in 20 mM MOPS buffer (pH 7.4) or phosphate buffer PBS. • 4. The purified arginine-binding protein mutant protein is identified by SDS-PAGE, and the probe is diluted with assay buffer (100 mM HEPES, 100 mM NaCl, pH 7.3) or phosphate buffer PBS to a final concentration of 5-10 µM protein solution.” for “3.”, “protein. The measurement of absorption spectrum and fluorescence spectrum of samples is completed by a spectrophotometer and a fluorescence spectrophotometer.” for “protein.”

Assay [5] has as its system Salmonella Typhimurium arginine-binding protein STM4351 variant E37A with cpYFP inserted at the 200/203 site (STM4351-200/203-E37A-cpYFP), SEQ ID NO: 5. As to the kind of experiment: Fluorescence response and titration of purified probe with arginine. On the procedure:
(§2) • 1. Transform the pET28a-based arginine probe plasmid into BL21(DE3), culture overnight in an inverted manner, pick a clone from the plate into a 250 ml conical flask, place in a 37 °C shaker, culture at 220 rpm until OD = 0.4-0.8, add IPTG (1 M) at 1/1000 (v/v), and induce expression at 18 °C for 24-36 h. • 2. After induction expression, collect the bacteria by centrifugation at 4000 rpm for 30 minutes, add 50 mM phosphate buffer to resuspend the bacterial pellet, and ultrasonically disrupt until the bacteria are clarified. Centrifuge at 9600 rpm at 4 °C for 20 minutes. • 3. The centrifuged supernatant is purified by a self-assembled nickel column affinity chromatography column to obtain the protein, and the protein after nickel column affinity chromatography is then passed through a self-assembled desalting column to obtain the protein dissolved in 20 mM MOPS buffer (pH 7.4) or phosphate buffer PBS. • 4. The purified arginine-binding protein mutant protein is identified by SDS-PAGE, and the probe is diluted with assay buffer (100 mM HEPES, 100 mM NaCl, pH 7.3) or phosphate buffer PBS to a final concentration of 5-10 µM protein solution. Prepare arginine into a stock solution with a final concentration of 1 M using assay buffer (20 mM MOPS, pH 7.4) or phosphate buffer PBS. • 5. Take 100 µl of 5 µM protein solution, incubate at 37 °C for 5 min, add arginine respectively and mix to a final concentration of 100 mM, and measure the light absorption of the protein at 340 nm using a multifunctional fluorescence microplate reader. • 6. Take 100 µl of 1 µM fluorescent probe solution, incubate at 37 °C for 5 min, add arginine for titration, and measure the fluorescence intensity of the protein at 528 nm emission after 485 nm fluorescence excitation. The measurement of fluorescence excitation and emission of samples is completed using a multifunctional fluorescence microplate reader. • 7. Take 100 µl of 1 µM fluorescent probe solution, incubate at 37 °C for 5 min, add arginine, and measure the absorption spectrum and fluorescence spectrum of the probe protein. The measurement of absorption spectrum and fluorescence spectrum of samples is completed by a spectrophotometer and a fluorescence spectrophotometer.
Screen the purified STM4351-cpYFP fusion protein for arginine response, and divide the detection signal of the fusion fluorescent protein containing 100 mM arginine by the detection signal of the fusion fluorescent protein without arginine. […]
Purify the mutant STM4351-200/203-E37A-cpYFP with high response multiple and good specificity. […] Determination of emission spectrum: fix the excitation wavelengths at 420 nm and 485 nm respectively, record the emission spectrum at […]-540 nm, and read once every 5 nm.

In assay [6] the test system is Salmonella Typhimurium arginine-binding protein STM4351 variant T138A with cpYFP inserted at the 200/203 site (STM4351-200/203-T138A-cpYFP), SEQ ID NO: 12. The description is as above. Here is the method: as §2, with “Prepare arginine into a stock solution with a final concentration of 1 M using assay buffer (20 mM MOPS, pH 7.4) or phosphate buffer PBS. • 5.” left out, “spectrophotometer. […]” for “spectrophotometer.”

Where [7] appears, read: 500 mM arginine compared with 0 mM arginine, Figure 4.

In the case of `N=C(N)NCCC[C@H](N)C(=O)O` [arginine, Arginine], the “response to arginine, response multiple” value in assay [1] (Figure 3) is given as “about 1.29”; in assay [6] (arginine titration, Figure 3), roughly 3.14. Besides, the Kd in assay [1] (Figure 3, read-out: affinity for the substrate) is 23.6 µM; in assay [5] (arginine titration, Figure 3, saturation at 10 mM arginine, read-out: affinity for the substrate), 170 to 210 µM; in assay [6] (arginine titration, Figure 3, read-out: affinity for the substrate) it was 190 µM. For the same compound, the response to arginine entry in assay [2] was “exceeding 3 times”; in assay [3] it was “exceeding 3 times”; in assay [4] it was “exceeding 3 times”; in assay [5] (arginine titration, Figure 3), “about 15 times”; in assay [6] (signal with 100 mM arginine divided by signal without arginine, Figure 2), “exceeding 3 times”. Also, the “fluorescence intensity under 420 nm excitation” value in assay [5] (setting [7]) is recorded as “basically unchanged”. Further, the “fluorescence intensity under 485 nm excitation” value in assay [5] (setting [7]) is given as “about 15.0 times”.
